Measured values: patent publication US10512669B2, “Blockade of inflammatory proteases with cyclic peptides” (The Regents of the University of California, priority 2011, dated 2019)
Bridge positions count the residues as written; N and C are the ends. Peptide text beside a SMILES is read from it.

Key:
[1] = target: TACE expressed on THP-1 cells (Homo sapiens, UniProt P78536); conditions: read-out: IC50 TACE blockade on THP-1 cells; literature study (ref. 1); cited from earlier work
in vitro = conditions: human, plasma
[2] = 50 μg/ml in 50 mg/ml human serum albumin, 72 hours, room temperature
chimpanzees = assay: escalating i.v. doses in adult chimpanzees: toxicity and immunogenicity; conditions: two adult chimpanzees
[3] = target: recombinant TACE (rTACE, ADAM17) (Homo sapiens, UniProt P78536); assay: recombinant TACE fluorometric inhibition assay; format: biochemical
Sequence of recombinant TACE (rTACE, ADAM17) (P78536 215-824): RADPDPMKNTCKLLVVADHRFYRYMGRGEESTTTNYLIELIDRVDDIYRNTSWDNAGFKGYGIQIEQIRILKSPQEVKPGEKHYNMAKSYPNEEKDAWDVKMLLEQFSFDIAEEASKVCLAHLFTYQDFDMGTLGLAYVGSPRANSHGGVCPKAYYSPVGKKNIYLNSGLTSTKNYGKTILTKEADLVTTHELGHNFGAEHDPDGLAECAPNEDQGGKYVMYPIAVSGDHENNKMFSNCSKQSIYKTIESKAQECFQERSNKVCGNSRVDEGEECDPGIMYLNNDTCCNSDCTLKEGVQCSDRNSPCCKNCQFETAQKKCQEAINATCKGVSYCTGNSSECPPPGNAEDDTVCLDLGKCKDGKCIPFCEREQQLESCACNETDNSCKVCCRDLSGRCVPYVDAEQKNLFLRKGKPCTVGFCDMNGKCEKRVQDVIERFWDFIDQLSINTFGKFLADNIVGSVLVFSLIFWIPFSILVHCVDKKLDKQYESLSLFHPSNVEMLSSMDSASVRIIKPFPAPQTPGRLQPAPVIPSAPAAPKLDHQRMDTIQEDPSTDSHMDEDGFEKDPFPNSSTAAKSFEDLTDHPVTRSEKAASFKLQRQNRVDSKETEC

Sequence of TACE expressed on THP-1 cells (P78536 215-824): as above

CNC(=O)[C@H](Cc1c[nH]c2ccccc12)NC(=O)[C@@H](CC(=O)NO)CC(C)C [GM6001]
IC50 [1]: 5.5 µM

CC[C@H](C)[C@@H]1NC(=O)[C@@H]2CSSC[C@H](NC(=O)[C@H](CCCNC(=N)N)NC(=O)[C@@H]3CSSC[C@H](NC1=O)C(=O)N[C@@H]([C@@H](C)O)C(=O)N[C@@H](CCCNC(=N)N)C(=O)NCC(=O)N[C@@H](Cc1ccccc1)C(=O)N3)C(=O)N[C@@H](CC(C)C)C(=O)N[C@H]1CSSC[C@H](NC(=O)[C@H](C(C)C)NC(=O)CNC(=O)[C@H](CCCNC(=N)N)NC(=O)[C@H](CCCNC(=N)N)NC1=O)C(=O)N[C@@H](CCCNC(=N)N)C(=O)N2 [RTD-1] (cyclo(GFCRCLCRRGVCRCICTR); disulfide 3-16, 5-14, 7-12 (inferred); ring closure inferred)
remaining at 72 h, 50 μg/ml (in vitro): > 95% | peptide unaltered [2]: more than 95% | antibody to RTD-1 (immunogenicity) (chimpanzees): Neither animal produced an antibody | clinical chemistry and hematologic laboratory values (chimpanzees; following all injections): within normal limits

HNP-2: human α-defensin from neutrophils (CYCRIPACIAGERRYGTCIYQGRLWAFCC)
inhibition of rTACE [3]: neither human α-defensin (HNP-2 (SEQ_ID NO. 31), HNP-4 (SEQ_ID NO. 33)) inhibited rTACE

HNP-4: human α-defensin from neutrophils (VCSCRLVFCRRTELRVGNCLIGGVSFTYCCTRV)
inhibition of rTACE [3]: neither human α-defensin (HNP-2 (SEQ_ID NO. 31), HNP-4 (SEQ_ID NO. 33)) inhibited rTACE
